# According to patent US20110151529A1, “METHODS AND PROCESSES FOR PRODUCING ORGANIC ACIDS” (THE OHIO STATE UNIVERSITY, priority 2008, published 2011):
# Experiments:
# [1] = tested on: C. tyrobutyricum original culture (wild type); assay: Butyrate inhibition of cell growth, noncompetitive product inhibition model, original culture; assay type: cell-based, Clostridium tyrobutyricum
# [2] = tested on: P. acidipropionici adapted ACK-Tet from FBB; conditions: at 20 g/L propionic acid
# [3] = tested on: P. acidipropionici wild type; assay: Propionic acid inhibition of specific growth rate, free-cell culture, wild type; conditions: at 20 g/L propionic acid
SMILES,butyrate concentration beyond which the culture lost its ability to grow [1] [g/L],specific growth rate retained relative to 0 g/L of propionic acid [2],growth rate lost [3]
CCCC(=O)O [butyric acid],> 20,–,–
CCC(=O)O [propionic acid],–,about 75%,more than 80%
